Experiments:
HeLa cells = test: Inhibition of in vitro growth of HeLa cells (Alamar Blue uptake); assay type: cell-based, human; conditions: concentration required to inhibit by 50% the uptake of Alamar Blue by HeLa cell cultures
Experimental: Compounds were evaluated for their ability to inhibit in vitro the growth of HeLa cells, an immortal cell line derived from a human cervical carcinoma commonly used to evaluate the cytotoxicity of potential therapeutic agents. The following data reflect the cytotoxicity of selected examples of the present invention. The values given represent the concentration of test compound required to inhibit by 50% the uptake of Alamar Blue (Biosource International, Camarillo, Calif.) by HeLa cell cultures, which correlates directly with the overall levels of cellular metabolism in the culture, and is generally accepted as an appropriate marker of cell growth. The test was conducted according to the method of S. A. Ahmed et al. (1994) J. Immunol. Methods 170: 211-224.

tubulin = test: Irreversible labeling of cellular protein by tritiated compounds in MCF7 cells; assay type: binding; conditions: tritiated form; human breast carcinoma MCF7 cells
Description: Preferred compounds display specific toxicity to various types of cells. Certain compounds and compositions of the present invention exert their cytotoxic effects by interacting with cellular tubulin. For certain preferred compounds and compositions of the present invention, that interaction is covalent and irreversible. […] This protein is a key component of microtubules, which constitute the cytoskeleton and also play critical roles in many other aspects of the cell's physiology, including cell division. The labeling of tubulin by the subject preferred compounds is also shown to be dose-dependent. The site of covalent binding on tubulin is identified as Cysteine-239 on the β-tubulin chain. The same Cys-239 residue is selectively covalently modified when present in a wide variety of Cys-239 containing β-tubulin petides (e.g. Ser-234 to Met-267) provided in vitro or in vivo. One embodiment of these preferred compounds provides the binding mechanism shown in Scheme IV, namely, displacement of the para-fluorine atom by the thiol group of Cys-239.

| SMILES | melting point [°C] | IC50 (HeLa cells; Homo sapiens) [µM] | also measured |
| --- | --- | --- | --- |
| O=S(=O)(Nc1ccc2[nH]ncc2c1)c1c(F)c(F)c(F)c(F)c1F [Example 15, 5-Pentafluorophenylsulfonamidoindazole] | – | 1 | – |
| COc1ccc(NS(=O)(=O)c2c(F)c(F)c(F)c(F)c2F)cc1F [Example 7, 2-Fluoro-1-methoxy-4-pentafluorosulfonamidobenzene] | – | < 0.05 | – |
| CN(C)c1ccc(NS(=O)(=O)c2c(F)c(F)c(F)c(F)c2F)cc1 [Example 1, 4-(N,N-Dimethylamino)-1-pentafluorophenylsulfonamidobenzene] | – | < 0.05 | – |
| COc1ccc(N(CCCCCO)S(=O)(=O)c2c(F)c(F)c(F)c(F)c2F)cc1O [Example 37, 2-Hydroxy-1-methoxy-4-(N-(5-hydroxypentyl)-pentafluorophenylsulfonamido)benzene] | 118 | – | – |
| [3H]c1cc(OC)c(F)cc1NS(=O)(=O)c1c(F)c(F)c(F)c(F)c1F [Example 72, 4-[3H]-1-Fluoro-2-methoxy-5-pentafluorosulfonamidobenzene] | – | – | labeling of cellular protein (tubulin): irreversible labeling of only one detectable cellular protein, which was found to be tubulin |
| COc1ccc(N(CCCC(O)CO)S(=O)(=O)c2c(F)c(F)c(F)c(F)c2F)cc1 (stereo not drawn) [Example 55, 1-(N-(4,5-Dihydroxypentyl)pentafluorophenylsulfonamido)-4-methoxybenzene] | 116 to 118 | – | – |
| O=S(=O)(Nc1ccc(Cl)nc1)c1c(F)c(F)c(F)c(F)c1F [Example 36, 2-Chloro-5-pentafluorophenylsulfonamidopyridine] | 144 to 145 | – | – |
| CN(C)c1ccc(N(C)S(=O)(=O)c2c(F)c(F)c(F)c(F)c2F)cc1 [Example 17, 4-(N,N-Dimethylamino)-1-(N-methylpentafluorophenylsulfonanido)benzene] | – | 10 | – |
| CN(C)c1cccc(NS(=O)(=O)c2c(F)c(F)c(F)c(F)c2F)c1 [Example 2, 3-(N,N-Dimethylamino)-1-pentafluorophenylsulfonamidobenzene] | – | 0.15 | – |
| COc1ccc(NS(=O)(=O)c2c(F)c(F)c(F)c(F)c2F)cc1Br [Example 31, 2-Bromo-1-methoxy4-pentafluorophenylsulfonamidobenzene] | – | 0.5 | – |
| C=CCCN(c1ccc(OC)cc1)S(=O)(=O)c1c(F)c(F)c(F)c(F)c1F [Example 51, 1-(N-(3-Butenyl)pentafluorophenylsulfonamido)-4-methoxybenzene] | 64 to 66 | – | – |
| COc1ccc(NS(=O)(=O)c2c(F)c(F)c(F)c(F)c2F)cc1N [Example 59, 3-Amino-4-methoxy-1-pentafluorophenylsulfonamidobenzene] | 142 to 143 | – | – |
| COc1ccc(NS(=O)(=O)c2c(F)c(F)c(F)c(F)c2F)cc1Cl [Example 32, 2-Chloro-1-methoxy-4-pentafluorophenylsulfonamidobenzene] | – | – | IC50 (HeLa cells): 0.1 µM |

The next lines start with results.

| melting point [°C] | IC50 (HeLa cells; Homo sapiens) [µM] | SMILES | also measured |
| --- | --- | --- | --- |
| 130 to 131 | – | COc1ccc(N(CC(O)CO)S(=O)(=O)c2c(F)c(F)c(F)c(F)c2F)cc1 (stereo not drawn) [Example 53, 1-(N-(2,3-Dihydroxypropyl)pentafluorophenylsulfonamido)-4-methoxybenzene] | – |
| – | < 0.05 | COc1ccc(NS(=O)(=O)c2c(F)c(F)c(F)c(F)c2F)cc1O [Example 6, 2-Hydroxy-1-methoxy-4-pentafluorophenylsulfonamidobenzene] | – |
| – | 1.5 | COc1ccc(N(C)S(=O)(=O)c2c(F)c(F)c(F)c(F)c2F)cc1F [Example 30, 2-Fluoro-1-methoxy-4-(N-methylpentafluorophenylsulfonamido)benzene] | – |
| 88 to 90 | – | COc1ccc(N(CCCCO)S(=O)(=O)c2c(F)c(F)c(F)c(F)c2F)cc1 [Example 56, 1-(N-(4-hydroxybutyl)pentafluorophenylsulfonamido)-4-methoxybenzene] | – |
| – | 1.5 | O=S(=O)(Nc1ccc2c(c1)OCCO2)c1c(F)c(F)c(F)c(F)c1F [Example 3, 1,2-Ethylenedioxy-4-pentafluorophenylsulfonamidobenzene] | – |
| 95 to 97 | – | COc1ccc(NS(=O)(=O)c2c(F)c(F)c(F)c(F)c2F)cc1[N+](=O)[O-] [Example 58, 4-Methoxy-3-nitro-1-pentafluorophenylsulfonamidobenzene] | – |
| – | 0.15 | CCN(CC)c1ccc(NS(=O)(=O)c2c(F)c(F)c(F)c(F)c2F)cc1 [Example 12, 4-(N,N-Diethylamino)-1-pentafluorophenylsulfonamidobenzene] | – |
| 102 to 103 | < 0.05 | COc1ccc(NS(=O)(=O)c2c(F)c(F)c(F)c(F)c2F)cc1 [Example 8, 4-Methoxy-1-pentafluorophenylsulfonamidobenzene] | – |
| 59 to 60 | – | C=CCN(c1ccc(OC)cc1)S(=O)(=O)c1c(F)c(F)c(F)c(F)c1F [Example 50, 4-Methoxy-1-(N-(2-propenyl)pentafluorophenylsulfonamido)benzene] | – |
| – | 1 | O=S(=O)(Nc1cccc(O)c1)c1c(F)c(F)c(F)c(F)c1F [Example 9, 3-Hydroxy-1-pentafluorophenylsulfonamidobenzene] | – |
| 109 | – | COc1cc(Br)c(NS(=O)(=O)c2c(F)c(F)c(F)c(F)c2F)cc1F [Example 41, 1-Bromo-4-fluoro-5-methoxy-2-pentafluorophenylsulfonamidobenzene] | – |
| 96 to 97 | – | COc1ccc(N(CCCCCO)S(=O)(=O)c2c(F)c(F)c(F)c(F)c2F)cc1 [Example 57, 4-Methoxy-1-(N-(5-hydroxypentyl)pentafluorophenylsulfonamido)benzene] | – |
| – | 10 | O=S(=O)(Nc1ccc(N2CCOCC2)cc1)c1c(F)c(F)c(F)c(F)c1F [Example 25, 4-(1-Morpholino)-1-pentafluorophenylsulfonamidobenzene] | – |
| 121 to 123 | – | COc1ccc(NS(=O)(=O)c2c(F)c(F)c(F)c(F)c2F)cc1C(F)(F)F [Example 49, 4-Methoxy-1-pentafluorophenylsulfonamido-3-trifluoromethylbenzene] | – |
| – | 10 | O=S(=O)(Nc1ccc2c(c1)OCO2)c1c(F)c(F)c(F)c(F)c1F [Example 4, 1,2-Methylenedioxy-4-pentafluorophenylsulfonamidobenzene] | – |
| 126 to 128 | – | COc1ccc(N(CCC(O)CO)S(=O)(=O)c2c(F)c(F)c(F)c(F)c2F)cc1 (stereo not drawn) [Example 54, 1-(N-(3,4-Dihydroxybutyl)pentafluorophenylsulfonamido)-4-methoxybenzene] | – |

From US6962929B2, “Pentafluorobenzenesulfonamides and analogs” (Tularik Inc., priority 1996, dated 2005)
